Results reported in ChEMBL document CHEMBL3507680, “University of Dundee, Gates Library screen for HepG2 cell viability”.

Experiment: Human HepG2 cell viability assay in 384 well format
Assay type: toxicity, cell-based
Parameters: dose 125 nL, time 70.5 hour; cytotoxicity at 70.5 h: concentration not given beside the values
Details: HepG2 cells, read-out: Inhibition

Row | SMILES | cytotoxicity at 70.5 h [%]
1 | Cc1ccc2nc(C3CCN(CCO)CC3)nn2c1 | 21.1
2 | Cn1cc(C2CC(=O)NC23CCN(c2ncc(F)cn2)CC3)cn1 (stereo not given) | 25.2
3 | Cc1cccc(C(=O)N2C[C@@H]3OCCN(C(C)C)[C@@H]3C2)n1 | -0.427
4 | CNC(=O)[C@H]1C[C@@H]2CN(C(=O)c3ccco3)C[C@@H]2N1S(C)(=O)=O | -7.68
5 | Cc1ncnc2c1CCN(c1cc(C(F)(F)F)ncn1)CC2 | -17.8
6 | CS(=O)(=O)N1CC[C@H]2C[C@@H](C(=O)N3CCOCC3)O[C@@H]2C1 | 2.65
7 | O=C(NCc1ccco1)[C@H]1C[C@H]2OCC[C@H]2N(S(=O)(=O)C2CC2)C1 | -12.2
8 | CCc1cnc(N2C[C@H]3C[C@H](C(=O)N(C)C)[C@@H](C2)O3)nc1 | -7.47
9 | CCNC(=O)N1CCC2(C1)c1ccccc1S(=O)(=O)N2CCC(C)C (stereo not given) | -12.9
10 | CN(C)C(=O)[C@H]1C[C@@H]2CCN(C3CCOCC3)C[C@H]2O1 | -8.09
11 | COCCN1C(=O)[C@]2(CC[C@@H]3CN(C(=O)NCC(C)C)C[C@@H]32)N=C1C | -10
12 | CS(=O)(=O)NCc1n[nH]c2c1CCN(C(=O)c1ccsc1)C2 | 30.1
13 | CNC(=O)C1CN(C(C)C)CCN1c1ncccn1 (stereo not given) | 2.44
14 | CCCn1nccc1-c1cnc(CC2CCN(C(C)=O)C2)cn1 (stereo not given) | -3.63
15 | O=C(NC1CCC1)[C@@H]1CCO[C@@H]2CCN(CCc3ccccc3)C[C@H]21 | -3.26
16 | Cc1cccc(NC(=O)N2CCCn3cnc(CN4CCCC4)c3C2)c1 | -1.43
17 | c1cnc(NC[C@@H]2CCC[C@@H]3CN(Cc4cc[nH]n4)C[C@@H]32)nc1 | -5.11
18 | Cc1cnc2n1CCN(C)C21CCN(C(=O)CC(C)C)CC1 | 3.32
19 | CCN1CCC2(CC1)CC(NC(=O)NC)c1cc(C)ccc12 (stereo not given) | -6.74
20 | COCC(=O)N1CCC[C@]2(C(=O)N(C)C)CN(c3ccccn3)C[C@@H]2C1 | -5.67

Row | SMILES | cytotoxicity at 70.5 h [%]
21 | CCS(=O)(=O)N1CCC[C@]2(C(=O)N(C)C)CN(c3ccccn3)C[C@@H]2C1 | -0.152
22 | CN(Cc1ccccc1)C1COC2(CCN(Cc3nccs3)CC2)C1 (stereo not given) | 10
23 | CO[C@H]1CCN(S(=O)(=O)c2cn(C)cn2)[C@H]1Cc1cnn(C)c1 | -14.3
24 | O=C([C@H]1C[C@@H]2CCN(C3CCOCC3)C[C@@H]2O1)N1CCOCC1 | -5.58
25 | CN1CCN(C(=O)[C@H]2C[C@@H]3CCN(c4ncc(F)cn4)C[C@@H]3O2)CC1 | -13.1
26 | COCCN1C[C@@H](C)[C@@]2(COCCN(C(=O)Cc3ccccc3)C2)C1 | -23
27 | Cc1nc(N2CCCC2)nc2c1CN(C(C)C)CC2 | -12.7
28 | COc1ccc(CN2CCc3ncnc(OC(C)C)c3CC2)cc1 | 43.9
29 | Cc1ccc(CN2CCc3ncnc(C4CC4)c3CC2)s1 | 33.9
30 | CN1CC(=O)N(c2cccnc2)CC12CCN(C(=O)c1cccnc1)C2 (stereo not given) | 2.34
31 | CCN1CCn2c(C)cnc2C12CCN(C(=O)CC(C)C)CC2 | -2.3
32 | Cn1cc(N2C(=O)CC[C@@H]3[C@H]2CCN3Cc2ccncc2)cn1 | 6.03
33 | Cc1cnc(N2CCCC3(CCN(Cc4csc(C)n4)C3=O)C2)nc1 (stereo not given) | 3.6
34 | O=C(c1ccsc1)N1CCOC2(CCN(Cc3cccnc3)CC2)C1 | -1.16
35 | CN(Cc1cn2c(n1)CN(C1CCOC1)CC2)Cc1ccco1 (stereo not given) | -8.22
36 | O=C(NCC1CC1)[C@H]1C[C@@H]2[C@@H](C1)OCCN2Cc1cccnc1 | 25
37 | CN1CCN(C[C@@H]2OC[C@H]3CN(Cc4ccsc4)CC[C@H]32)CC1 | -4.59
38 | CC1c2ncc(CN3CCN(C)CC3)n2CCN1CC1CC1 (stereo not given) | -11.9
39 | CC1c2ncc(CN3CCN(C)CC3)n2CCN1Cc1cccnc1 (stereo not given) | -15.8
40 | Cc1c[nH]c(C2CCCN(Cc3ccccc3C(=O)O)C2)n1 (stereo not given) | 18.7
